How the values were obtained:
Experiment in all cases: relative viability (nuclei count vs DMSO), 5 days (fraction); higher = more cells survive
Quizartinib + Trametinib = compound: CC(C)(C)c1cc(NC(=O)Nc2ccc(-c3cn4c(n3)sc3cc(OCCN5CCOCC5)ccc34)cc2)no1 [Quizartinib] + CC(=O)Nc1cccc(-n2c(=O)n(C3CC3)c(=O)c3c(Nc4ccc(I)cc4F)n(C)c(=O)c(C)c32)c1 [Trametinib] (partner 0.02 µM)
Outline: (§1)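 Lung cancer cell lines in 1536-well plates were dosed by pin tool the day after seeding, either with one drug alone or with a fixed anchor-drug dose plus five library-drug doses (not always all listed) in √10 steps. After 5 days, cells were fixed and their nuclei stained in one step (final 0.05% Triton X-100, 1% formaldehyde, 1 ug/ml Hoechst), then counted on 4× images. Relative viability is the nuclei count in treated wells divided by that in vehicle wells. Values are medians of duplicate plates.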

[1] = compound: CC(C)(C)c1cc(NC(=O)Nc2ccc(-c3cn4c(n3)sc3cc(OCCN5CCOCC5)ccc34)cc2)no1 [Quizartinib] + CC(=O)c1c(C)c2cnc(Nc3ccc(N4CCNCC4)cn3)nc2n(C2CCCC2)c1=O [Palbociclib] (partner 0.5 µM)
Outline: as §1

Quizartinib + OSI-027 = compound: CC(C)(C)c1cc(NC(=O)Nc2ccc(-c3cn4c(n3)sc3cc(OCCN5CCOCC5)ccc34)cc2)no1 [Quizartinib] + COc1cccc2cc(-c3nc([C@H]4CC[C@H](C(=O)O)CC4)n4ncnc(N)c34)[nH]c12 [OSI-027] (partner 0.5 µM)
Outline: as §1

Quizartinib + Pemetrexed = compound: CC(C)(C)c1cc(NC(=O)Nc2ccc(-c3cn4c(n3)sc3cc(OCCN5CCOCC5)ccc34)cc2)no1 [Quizartinib] + Nc1nc2[nH]cc(CCc3ccc(C(=O)N[C@@H](CCC(=O)O)C(=O)O)cc3)c2c(=O)[nH]1 [Pemetrexed] (partner 0.2 µM)
Outline: as §1

Quizartinib + Vorinostat = compound: CC(C)(C)c1cc(NC(=O)Nc2ccc(-c3cn4c(n3)sc3cc(OCCN5CCOCC5)ccc34)cc2)no1 [Quizartinib] + O=C(CCCCCCC(=O)Nc1ccccc1)NO [Vorinostat] (partner 1 µM)
Outline: as §1

YM155 + Palbociclib = compound: COCC[n+]1c2c(n(Cc3cnccn3)c1C)C(=O)c1ccccc1C2=O [YM155] + CC(=O)c1c(C)c2cnc(Nc3ccc(N4CCNCC4)cn3)nc2n(C2CCCC2)c1=O [Palbociclib] (partner 0.5 µM)
Outline: as §1

NCI-H1648
relative viability (Quizartinib + Trametinib; first compound 0.003162 µM): 0.401
relative viability (Quizartinib + Trametinib; first compound 0.03162 µM): 0.581
relative viability (Quizartinib + Trametinib; first compound 0.1 µM): 0.486
relative viability ([1]; first compound 0.003162 µM): 0.118
relative viability ([1]; first compound 0.03162 µM): 0.277
relative viability ([1]; first compound 0.1 µM): 0.239
relative viability (Quizartinib + OSI-027; first compound 0.01 µM): 0.258
relative viability (Quizartinib + OSI-027; first compound 0.03162 µM): 0.253
relative viability (Quizartinib + OSI-027; first compound 0.1 µM): 0.259
relative viability (Quizartinib + Pemetrexed; first compound 0.003162 µM): 0.617
relative viability (Quizartinib + Pemetrexed; first compound 0.03162 µM): 0.552
relative viability (Quizartinib + Pemetrexed; first compound 0.1 µM): 1.05
relative viability (Quizartinib + Vorinostat; first compound 0.003162 µM): 0.315
relative viability (Quizartinib + Vorinostat; first compound 0.03162 µM): 0.32
relative viability (Quizartinib + Vorinostat; first compound 0.1 µM): 0.927
relative viability (YM155 + Palbociclib; first compound 0.006325 µM): 0.299
relative viability (YM155 + Palbociclib; first compound 0.02 µM): 0.306
relative viability (YM155 + Palbociclib; first compound 0.06325 µM): 0.295
